Test results reported in US20130011427A1 (priority 2009, published 2013).
Blank lines part the entries; values can stand above or below the substance they belong to.

Experiments:
[1] = test system: HLA-B7 (HLA-B*0702) Tg mice, CD4-depleted splenocytes; format: cell-based, mouse
[2] = test system: HLA-A24/huCD8α (HLA-A*2402) Tg mice, CD4-depleted splenocytes; format: cell-based, mouse
[3] = test system: HLA-DR4/huCD4 (DRB1*0401) Tg mice, CD8-depleted splenocytes; format: cell-based, mouse
[4] = test system: HLA-DR3 (DRB1*0301) Tg mice, CD8-depleted splenocytes; format: cell-based, mouse
[5] = test system: HLA-A2.1 (HLA-A*0201) Tg mice, CD4-depleted splenocytes; format: cell-based, mouse
[6] = test system: HLA-DR2 (DRB1*1501) Tg mice, CD8-depleted splenocytes; format: cell-based, mouse
[7] = biological target: HLA-B7 (chimeric HLA-B*0702 / H-2K^d heavy chain) (human; murine) (UniProt P01902); assay: cell-based or functional assay
[8] = biological target: HLA-DR4 (HLA-DRA*0101 / HLA-DRB1*0401) (human); assay: cell-based or functional assay
[9] = biological target: HLA-A2.1 (HHD monochain) (human; murine); assay: cell-based or functional assay
[10] = biological target: HLA-DR3 (HLA-DRA*0101 / HLA-DRB1*0301) (human); assay: cell-based or functional assay
[11] = biological target: HLA-DR2 (chimeric HLA-DRA1*0101/DRB1*1501 with I-E domains) (human; murine) (UniProt Q8BHN5); assay: cell-based or functional assay
UniProt Q8BHN5, sequence (Q8BHN5 whole entry, stated change not applied): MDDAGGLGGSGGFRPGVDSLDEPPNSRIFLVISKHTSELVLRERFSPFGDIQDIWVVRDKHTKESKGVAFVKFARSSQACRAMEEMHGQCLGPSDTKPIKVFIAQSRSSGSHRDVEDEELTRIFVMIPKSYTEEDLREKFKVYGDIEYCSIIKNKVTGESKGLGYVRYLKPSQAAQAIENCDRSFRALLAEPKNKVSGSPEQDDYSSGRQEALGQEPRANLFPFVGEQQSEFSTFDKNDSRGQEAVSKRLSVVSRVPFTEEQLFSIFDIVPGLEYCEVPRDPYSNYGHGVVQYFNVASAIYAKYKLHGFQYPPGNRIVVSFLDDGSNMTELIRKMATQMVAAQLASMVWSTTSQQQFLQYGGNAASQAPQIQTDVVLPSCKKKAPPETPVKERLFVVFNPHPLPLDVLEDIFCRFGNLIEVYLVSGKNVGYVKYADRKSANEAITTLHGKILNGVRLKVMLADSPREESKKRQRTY

UniProt P01902, sequence (P01902 whole entry, change not shown): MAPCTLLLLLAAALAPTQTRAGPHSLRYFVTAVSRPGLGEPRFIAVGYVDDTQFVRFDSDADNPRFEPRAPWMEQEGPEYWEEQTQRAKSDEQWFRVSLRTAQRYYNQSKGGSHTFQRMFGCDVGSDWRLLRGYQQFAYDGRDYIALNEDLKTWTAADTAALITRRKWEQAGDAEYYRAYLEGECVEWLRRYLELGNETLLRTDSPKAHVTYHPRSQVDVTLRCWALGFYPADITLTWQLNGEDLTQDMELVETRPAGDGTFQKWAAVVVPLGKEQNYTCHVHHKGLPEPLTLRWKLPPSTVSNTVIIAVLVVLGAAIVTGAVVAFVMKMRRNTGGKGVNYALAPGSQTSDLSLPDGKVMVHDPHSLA

Substance: CDIGESSSSAEVEEHRTI [NS5 145-162]
T cell activation of HLA transgenic mice (SFC/10^6) IFN-γ ELISpot, B7 [1]: 50 ± 22 SFC/10^6

Substance: DTACLAKSYAQMWLLLYF [NS5 755-772]
T cell activation of HLA transgenic mice (SFC/10^6) IFN-γ ELISpot, A24 [2]: 132 ± 62 SFC/10^6

Substance: DYINTSLTSINVQASALF [NS4b 63-80]
T cell activation of HLA transgenic mice (SFC/10^6) IFN-γ ELISpot, DR4 [3]: 92 ± 13 SFC/10^6
T cell activation of HLA transgenic mice (SFC/10^6) IFN-γ ELISpot, DR3 [4]: 386 ± 60 SFC/10^6

Substance: FACSTKAIGRTILKENIK [E 119-136]
T cell activation of HLA transgenic mice (SFC/10^6) IFN-γ ELISpot, A24 [2]: 179 ± 136 SFC/10^6

Substance: GGVLWDTPSPKEYKK [NS3 1-15]
T cell activation of HLA transgenic mice (SFC/10^6) IFN-γ ELISpot, B7 [1]: 45 ± 12 SFC/10^6

Substance: GIDTNAYYVMTVGTKTFL [E 195-212]
T cell activation of HLA transgenic mice (SFC/10^6) IFN-γ ELISpot, A24 [2]: 137 ± 70 SFC/10^6
T cell activation of HLA transgenic mice (SFC/10^6) IFN-γ ELISpot, DR4 [3]: 53 ± 16 SFC/10^6

Substance: GKLITDWCCRSCTLPPLR [NS1 305-322]
T cell activation of HLA transgenic mice (SFC/10^6) IFN-γ ELISpot, DR4 [3]: 109 ± 22 SFC/10^6
T cell activation of HLA transgenic mice (SFC/10^6) IFN-γ ELISpot, DR3 [4]: 557 ± 25 SFC/10^6

Substance: GKSRAVNMLKRGMPRVL [C 9-25]
T cell activation of HLA transgenic mice (SFC/10^6) IFN-γ ELISpot, B7 [1]: 43 ± 17 SFC/10^6

Substance: IALIALLSVMTMGVFFLL [NS4a 54-71]
T cell activation of HLA transgenic mice (SFC/10^6) IFN-γ ELISpot, A24 [2]: 70 ± 16 SFC/10^6

Substance: ILESDLIIPVTLAGPR [NS1 236-251]
T cell activation of HLA transgenic mice (SFC/10^6) IFN-γ ELISpot, A24 [2]: 43 ± 18 SFC/10^6
T cell activation of HLA transgenic mice (SFC/10^6) IFN-γ ELISpot, A2 [5]: 78 ± 42 SFC/10^6

Substance: ILPSVVGFWITLQYTKR [NS2b 115-131]
T cell activation of HLA transgenic mice (SFC/10^6) IFN-γ ELISpot, A24 [2]: 56 ± 2 SFC/10^6
T cell activation of HLA transgenic mice (SFC/10^6) IFN-γ ELISpot, A2 [5]: 108 ± 60 SFC/10^6

Substance: LITAAAVTLWENGASSVW [NS4b 201-218]
T cell activation of HLA transgenic mice (SFC/10^6) IFN-γ ELISpot, DR4 [3]: 73 ± 8 SFC/10^6
T cell activation of HLA transgenic mice (SFC/10^6) IFN-γ ELISpot, DR3 [4]: 99 ± 26 SFC/10^6

Substance: LVAAVIGWMLGSNTMQRV [prM 136-153]
T cell activation of HLA transgenic mice (SFC/10^6) IFN-γ ELISpot, DR2 [6]: 235 ± 9 SFC/10^6
T cell activation of HLA transgenic mice (SFC/10^6) IFN-γ ELISpot, DR4 [3]: 327 ± 162 SFC/10^6
T cell activation of HLA transgenic mice (SFC/10^6) IFN-γ ELISpot, DR3 [4]: 78 ± 35 SFC/10^6

Substance: MLGSNTMQRVVFVVLLLL [prM 144-161]
T cell activation of HLA transgenic mice (SFC/10^6) IFN-γ ELISpot, A24 [2]: 59 ± 18 SFC/10^6
T cell activation of HLA transgenic mice (SFC/10^6) IFN-γ ELISpot, DR2 [6]: 84 ± 32 SFC/10^6
T cell activation of HLA transgenic mice (SFC/10^6) IFN-γ ELISpot, DR4 [3]: 315 ± 157 SFC/10^6
T cell activation of HLA transgenic mice (SFC/10^6) IFN-γ ELISpot, DR3 [4]: 134 ± 35 SFC/10^6

Substance: NFQLMNDPGAPWKIWMLR [NS2b 84-101]
T cell activation of HLA transgenic mice (SFC/10^6) IFN-γ ELISpot, A24 [2]: 35 ± 1 SFC/10^6

Substance: PREHNGNEIVDVMCHATL [NS3 249-266]
T cell activation of HLA transgenic mice (SFC/10^6) IFN-γ ELISpot, DR2 [6]: 139 ± 25 SFC/10^6
T cell activation of HLA transgenic mice (SFC/10^6) IFN-γ ELISpot, A2 [5]: 79 ± 27 SFC/10^6
T cell activation of HLA transgenic mice (SFC/10^6) IFN-γ ELISpot, DR4 [3]: 46 ± 16 SFC/10^6

Substance: PTIDVKMMNMEAANLAEV [E 39-56]
T cell activation of HLA transgenic mice (SFC/10^6) IFN-γ ELISpot, A24 [2]: 137 ± 124 SFC/10^6

Substance: PYSGKREDIWCGSLIGTR [NS5 842-859]
T cell activation of HLA transgenic mice (SFC/10^6) IFN-γ ELISpot, A24 [2]: 180 ± 66 SFC/10^6

Substance: RVVFVVLLLLVAPAYS [prM 152-167]
T cell activation of HLA transgenic mice (SFC/10^6) IFN-γ ELISpot, DR2 [6]: 269 ± 30 SFC/10^6
T cell activation of HLA transgenic mice (SFC/10^6) IFN-γ ELISpot, A2 [5]: 318 ± 179 SFC/10^6
T cell activation of HLA transgenic mice (SFC/10^6) IFN-γ ELISpot, DR4 [3]: 117 ± 10 SFC/10^6
T cell activation of HLA transgenic mice (SFC/10^6) IFN-γ ELISpot, DR3 [4]: 90 ± 47 SFC/10^6

Substance: TLMEFEEPHATKQSVIAL [E 238-255]
T cell activation of HLA transgenic mice (SFC/10^6) IFN-γ ELISpot, A24 [2]: 122 ± 108 SFC/10^6

Substance: TWAENIQVAINQVRAII [NS5 863-879]
T cell activation of HLA transgenic mice (SFC/10^6) IFN-γ ELISpot, A24 [2]: 79 ± 11 SFC/10^6
T cell activation of HLA transgenic mice (SFC/10^6) IFN-γ ELISpot, DR4 [3]: 33 ± 1 SFC/10^6
T cell activation of HLA transgenic mice (SFC/10^6) IFN-γ ELISpot, DR3 [4]: 121 ± 2 SFC/10^6

Substance: TWTLIKNMEKPGLKR [NS4b 241-255]
T cell activation of HLA transgenic mice (SFC/10^6) IFN-γ ELISpot, A24 [2]: 53 ± 32 SFC/10^6

Substance: VFGGITYTDVLRYVILV [NS2a 45-61]
T cell activation of HLA transgenic mice (SFC/10^6) IFN-γ ELISpot, A24 [2]: 243 ± 196 SFC/10^6
T cell activation of HLA transgenic mice (SFC/10^6) IFN-γ ELISpot, DR2 [6]: 307 ± 119 SFC/10^6
T cell activation of HLA transgenic mice (SFC/10^6) IFN-γ ELISpot, DR4 [3]: 74 ± 11 SFC/10^6

Substance: VLGVATFFCWMAEVPGTK [NS4a 86-103]
T cell activation of HLA transgenic mice (SFC/10^6) IFN-γ ELISpot, A24 [2]: 65 ± 30 SFC/10^6
T cell activation of HLA transgenic mice (SFC/10^6) IFN-γ ELISpot, DR4 [3]: 63 ± 1 SFC/10^6

Substance: VMTMGVFFLLMQRKGIGK [NS4a 62-79]
T cell activation of HLA transgenic mice (SFC/10^6) IFN-γ ELISpot, A24 [2]: 117 ± 39 SFC/10^6

Substance: WFMWLGARFLEFEALGFL [NS5 477-494]
T cell activation of HLA transgenic mice (SFC/10^6) IFN-γ ELISpot, A24 [2]: 198 ± 60 SFC/10^6

Substance: WMEDKTPVEKWSDVPY [NS5 828-843]
T cell activation of HLA transgenic mice (SFC/10^6) IFN-γ ELISpot, B7 [1]: 39 ± 14 SFC/10^6

IFN-γ ELISpot (SFC/10^6) [7]: 43 SFC/10^6
Substance: WNV C 9-25 peptide

IFN-γ ELISpot (SFC/10^6) [8]: 205 SFC/10^6
Substance: WNV E 54-71 peptide

Substance: WNV E 62-77 peptide
IFN-γ ELISpot (SFC/10^6) [9]: 465 SFC/10^6
IFN-γ ELISpot (SFC/10^6) [8]: 47 SFC/10^6

Substance: WNV E 99-113 peptide
IFN-γ ELISpot (SFC/10^6) [10]: 79 SFC/10^6

IFN-γ ELISpot (SFC/10^6) [10]: 198 SFC/10^6
IFN-γ ELISpot (SFC/10^6) [11]: 120 SFC/10^6
Substance: WNV E 127-144 peptide

IFN-γ ELISpot (SFC/10^6) [10]: 86 SFC/10^6
Substance: WNV E 135-152 peptide

Substance: WNV E 171-188 peptide
IFN-γ ELISpot (SFC/10^6) [9]: 279 SFC/10^6
IFN-γ ELISpot (SFC/10^6) [7]: 996 SFC/10^6

Substance: WNV E 210-225 peptide
IFN-γ ELISpot (SFC/10^6) [9]: 323 SFC/10^6
IFN-γ ELISpot (SFC/10^6) [7]: 519 SFC/10^6

IFN-γ ELISpot (SFC/10^6) [8]: 47 SFC/10^6
Substance: WNV E 293-310 peptide

IFN-γ ELISpot (SFC/10^6) [10]: 87 SFC/10^6
Substance: WNV E 384-399 peptide

IFN-γ ELISpot (SFC/10^6) [10]: 88 SFC/10^6
IFN-γ ELISpot (SFC/10^6) [11]: 168 SFC/10^6
Substance: WNV E 398-415 peptide

IFN-γ ELISpot (SFC/10^6) [10]: 83 SFC/10^6
Substance: WNV E 426-443 peptide

IFN-γ ELISpot (SFC/10^6) [10]: 79 SFC/10^6
IFN-γ ELISpot (SFC/10^6) [11]: 116 SFC/10^6
Substance: WNV E 434-451 peptide

Substance: WNV E 442-459 peptide
IFN-γ ELISpot (SFC/10^6) [9]: 442 SFC/10^6
IFN-γ ELISpot (SFC/10^6) [10]: 101 SFC/10^6
IFN-γ ELISpot (SFC/10^6) [11]: 117 SFC/10^6

Substance: WNV E 465-482 peptide
IFN-γ ELISpot (SFC/10^6) [9]: 310 SFC/10^6
IFN-γ ELISpot (SFC/10^6) [10]: 330 SFC/10^6
IFN-γ ELISpot (SFC/10^6) [11]: 490 SFC/10^6
